Assay [1] deals with lipoxygenase pathway (5-HETE production in rat neutrophils). In words: Protocol for Detecting Inhibitors of the Lipoxygenase Pathway (5-HETE production in rat neutrophils). Particulars: Neutrophil, 0.05 h, [14C]-arachidonic acid and Calcium Ionophore A23187, 3 minutes at 30° C., 5-HETE produced, read-out: I50. Type of assay: cell-based. As to the method:
The following protocol describes an assay to detect inhibitors of the lipoxygenase pathway. Such inhibitors are believed to be capable of modulating the biosynthesis of the leukotrienes, a property believed to be useful in treating asthma and inflammatory disease states.
Protocol for Detecting Inhibitors of the Lipoxygenase Pathway
A suspension of rat neutrophils in buffer is incubated for 3 minutes at 30° C. with [^14 C]-arachidonic acid (AA) and Calcium Ionophore A23187. Citric acid (2M) is used to quench the reaction. Following the addition of a trace amount of (^3 H)-5-HETE together with an excess of unlabeled 5-HETE to each tube, the mixture is extracted with chloroform/methanol. The organic layer is washed with dilute acid and an aliquot is transferred to glass tubes and dried. […] After adjusting for the extraction efficiency, the amount (pmole) of [^14 C]-5-HETE in each of the tubes is quantitated by substracting the net pmoles of 5-HETE in the tubes containing buffer alone (blank) from the pmoles of 5-HETE in the tubes containing […]. The ability of the test compounds to modulate the activity of this enzyme is determined by a decrease or increase in the net amount of 5-HETE produced.

The subject of assay [2] is leukotriene C4-induced contraction of guinea pig peripheral lung strips. In words: Protocol for SRS-A Antagonists: leukotriene C4-induced contraction of guinea pig peripheral lung strips. Particulars: 0.2 nM leukotriene C4, read-out: concentration required for 50% inhibition of 0.2 nM leukotriene C4-induced contraction. Here is the method:
Leukotrienes, the products of the 5-lipoxygenase pathway of arachidonic acid metabolism, are potent contractile agents with a variety of smooth muscle preparations. […] The following protocol describes an in vitro assay used to test compounds which specifically antagonize the actions of leukotrienes.
Protocol for SRS-A (slow reacting substance of anaphylaxis) Antagonists
Peripheral strips of guinea pig lungs are prepared and hung in tissue baths (Metro #ME-5505, 10 ml) according to the published procedure--(Proc. Nat'l Acad. Sci., U.S.A. Volume 77, pp. 4354-4358, 1980). The strips are thoroughly rinsed in Assay Buffer and then connected with surgical silk thread to support rods from the tissue baths. The rods are adjusted in the baths and the strips connected to the pressure transducers (Grass FT 103 or Gould UC-3). The tissue baths are aerated with 95% oxygen--5% carbon dioxide and maintained at 37° C. The assay buffer has been made as follows: for each liter of buffer the following are added to approximately 800 ml of water distilled in glass-6.87 g NaCl, 0.4 g KCl, 2.1 g NaHCO3, 0.14 g NaH2 PO4.H2 O, 0.21 g MgSO4.7H2 O, and 2.0 g D-glucose. […]
Responses of each tissue to a pre-determined concentration of leukotriene are then obtained. […] The intrinsic activity of the compounds, and their effect on leukotriene-induced contractions are then recorded.

In assay [3] the test system is SRS-A component of anaphylactic bronchoconstriction. Kind of assay: Bronchial Anaphylaxis in Guinea Pigs with Enhanced Leukotrienes (BAGEL). Type of assay: in vivo, guinea pig. Conditions: 100 mg/kg, i.d., guinea pigs immunized with ovalbumin. Here is the method:
Protocol for in vivo Testing of Modulators of SRS-A (slow reacting substances of anaphylaxis)
This test, known as the Bronchial Anaphylaxis in Guinea Pigs with Enhanced Leukotrienes (BAGEL), is based on the procedure published in Agents and Actions, Vol. II, pp. 396-401, 1981, and is performed with guinea pigs actively immunized (14 days) with ovalbumin (2.7 mg/kg, i.p.) and B. pertussis (5×10^9 organisms) as an adjuvant. Prior to challenge with antigen (ovalbumin), the animals are anesthetized and prepared for monitoring pulmonary dynamics by whole body plethysmography. They are treated with an H1 antihistamine (methapyrilene, 2 mg/kg, i.v.) and cyclooxygenase inhibitor (indomethacin; 20 mg/kg, i.p.) in order to enhance the SRS-A component of anaphylactic bronchoconstriction. Bronchoconstriction is quantified as the maximum increase in airway resistance following antigen challenge. The drug is administered either i.p. 10 minutes before challenge, or i.d. 15 minutes before challenge.

pIC50: −log10 of the molar value.

For the compound `COc1ccc(OCc2ccc3ccccc3n2)cc1` [2-(p-methoxyphenoxymethyl) quinoline, 2-(p-Methoxyphenoxymethyl) quinoline], the pIC50 in assay [1] is 6.15; in assay [2], 6.52.

For `c1ccc(OCc2ccc3ccccc3n2)cc1` [2-Phenoxymethyl quinoline], the “activity in BAGEL test (bronchoconstriction following antigen challenge)” value in assay [3] was “highly active”. The pIC50 in assay [1] is 6.30; in assay [2] it was 6.05.

Source of the values: patent US4631287A, “Aryl and heteroaryl ethers as agents for the treatment of hypersensitive ailments” (USV Pharmaceutical Corp., priority 1985, dated 1986).
